According to patent US20080076847A1, “Polymerizable compositions with acylgermanes as initiatiors” (IVOCLAR VIVADENT AG, priority 2006, published 2008):
Read-outs that look alike come from different tables or passages of the source.

Legend:
[1] = UV-VIS absorption maximum; assay type: physicochemical; conditions: longest-wave maximum
[2] = Photoinitiator activity by photo-DSC
Procedure: The activity of the photoinitiators was measured by means of photo-DSC (Differential Scanning Calorimetry) measurements on a DSC-50 device from Shimadzu, wherein the samples were irradiated alternatively with different dental lamps (Astalis 3: halogen lamp, wavelength range 400-500 nm, intensity 530 mW/cm^2; Bluephase C8: LED, wavelength range 430-490 nm, intensity 1100 mW/cm^2; Ivoclar Vivadent AG). The activity is characterized by the time of peak maximum (tmax), the polymerization rate (RP) which corresponds to the peak height, and the double bond conversion (DBC). The respective photoinitiators were dissolved in a resin mixture of D3MA:UDMA:bis-GMA=1:1:1 and then measured in an aluminium crucible by means of DSC. […]

[3] = known photoinitiators, longest-wave maximum; cited from earlier work
[4] = Astralis 3 lamp (400-500 nm), 0.022 mmol PI per gram of resin
[5] = Bluephase C8 lamp (430-490 nm), 0.022 mmol PI per gram of resin

SMILES	absorption maximum [1]	DBC (double bond conversion) [2, 4]	Rp × 10^−3 (polymerization rate) [2, 4]	DBC (double bond conversion) [2, 5]	Rp × 10^−3 (polymerization rate) [2, 5]	DBC (double bond conversion) ([2]; PI concentration 0.0014 mmol/g)	Rp × 10^−3 (polymerization rate) ([2]; PI concentration 0.0014 mmol/g)	DBC (double bond conversion) ([2]; PI concentration 0.0055 mmol/g)	Rp × 10^−3 (polymerization rate) ([2]; PI concentration 0.0055 mmol/g)	absorption maximum [3]	curing time compared with campherquinone/amine ([2]; resin mixture D3MA:UDMA:bis-GMA=1:1:1)	polymerization rate (Rp) compared with camphorquinone in combination with an amine accelerator ([2]; resin mixture D3MA:UDMA:bis-GMA=1:1:1, same formulation)
[CH3][Ge]([CH3])([CH3])[C](=O)c1ccccc1 [Mono-AG, benzoyltrimethylgermanium]	411.5 nm	56%	51.0 mol/(l × s)	49%	48.3 mol/(l × s)	30%	16.4 mol/(l × s)	48%	36.2 mol/(l × s)	–	–	–
CC12CCC(C(=O)C1=O)C2(C)C (stereo not drawn) [camphorquinone]	–	–	–	–	–	–	–	–	–	468 nm	–	–
Cc1cc(C)c(C(=O)P(=O)(C(=O)c2c(C)cc(C)cc2C)c2ccccc2)c(C)c1 [Irg 819, bis(2,4,6-trimethylbenzoyl)phenylphosphine oxide, reference compound]	–	59%	67.5 mol/(l × s)	45%	43.5 mol/(l × s)	42%	30.4 mol/(l × s)	48%	48.3 mol/(l × s)	397 nm	–	–
C[CH2][Ge]([CH2]C)([C](=O)c1ccccc1)[C](=O)c1ccccc1 [Bis-AG, bisbenzoyldiethylgermanium]	418.5 nm	84%	99.2 mol/(l × s)	72%	98.5 mol/(l × s)	56%	61.0 mol/(l × s)	66%	85.6 mol/(l × s)	–	halved	almost double
